Laboratory results taken from patent US12098176B2, “Keratin BD-4, preparation method, and pharmaceutical composition and use thereof” (Institute of Materia Medica, Chinese Academy of Medical …, priority 2019, dated 2024).
Structures can show the parent of a compound that is named as a salt.

Tested on: phenol red excretion in mice
Assay: Expectorant test, phenol red excretion method in mice
Type: in vivo, mouse
Experimental: Experimental example 5 The pharmacodynamic test of protein BD-4 (Example 4 protein) on the expectorant of phenol red excretion method in mice.
• Solvent control group; • Mucosultan 30 mg/kg group; • Protein BD-4, 20 mg/kg group, 50 mg/kg group. Method: Model Preparation and Administration:
The animals were fasted and watered 16 hours before the experiment. Orally administered Mucosultan and different doses of protein BD-4 (administration volume 10 ml/kg) in groups, and the solvent control group was given the same volume of distilled water. One hour later, 2.5% phenol red solution was injected intraperitoneally, Kill the mouse by removing the neck after 30 minutes. Take the trachea from below the thyroid cartilage to the branch of the trachea. Put the trachea into 3 ml 5% NaHCO3 solution and let it stand for 3 hours. Take 1 ml of the supernatant and centrifuge at 3000 rpm for 5 minutes. Measure and record the absorbance at 546 nm. According to the standard curve of phenol red, the excretion of phenol red was calculated.
Record the time point of oral administration, the time point of intraperitoneal injection of 2.5% phenol red solution, and the time point of tracheal extraction respectively; The absorbance of each group of samples was measured by the microplate reader at 546 nm, Calculate the excretion of phenol red according to the standard curve of phenol red. […]

Structure (SMILES): Nc1c(Br)cc(Br)cc1CN[C@H]1CC[C@H](O)CC1 [Mucosolvan, ambroxol hydrochloride, reference compound]
- Phenol red excretion (Mucosolvan 30 mg/kg oral, X ± SEM): 1.138 ± 0.079 µg/mL
- Phenol red excretion vs solvent control group (Mucosultan 30 mg/kg, P<0.05): significantly increased
